Series [1] is described as follows: Solubility of acetaminophen at 20° C. Type of series: physicochemical. The note with it: water.
The subject of series [2] is oedema at the site of inflammation induced by carrageenan. As to the kind of experiment: Development of oedema (paw volume), carrageenan model. The note with it: for Paw volume (oedema): mice, individual animals. Type of series: in vivo, mice. How it is done:
The efficacy of the acetaminophen supersaturated solution administered by spinal administration (IT) was tested by means of explorative experiments in a model of inflammatory pain in mice, induced by means of intraplantar injection (injection in the rear left paw, referred to hereinafter as the “site of inflammation”) of carrageenan (50 μl 1%).
The development of oedema at the site of inflammation was measured and expressed as an increase of volume (mL) of the site of inflammation.
Spinal administration in the mouse was carried out as described by Fairbanks (2003).
Background: Carrageenan injected into the paw causes an acute inflammation.

Series [3] relates to post-surgical pain in rats. Type of series: in vivo. As to conditions: 4 hours after the incision, IT acetaminophen 200 μg, chloroprocaine 3% 20 μL; for pain threshold following mechanical stimulation: individual animals. Here is the method:
The efficacy of the acetaminophen supersaturated solution administered by spinal administration (IT) was tested with explorative experiments in a model of post-surgical pain in rats in combination with a solution of chloroprocaine 3%.
The post-surgical pain was induced by means of incision and subsequent suture of the subplantar region of the rear left paw, as described by Timothy J. Brennan (1996).
The pain threshold following mechanical stimulation (expressed in grams) was measured 4 hours after the incision. Complete reduction of the anaesthetic effect of the spinal chloroprocaine is expected within this period of time. The reduction of the pain threshold is considered to be an indicator of pain and hyperalgesia of the zone affected by surgical intervention.

Series [4] concerns post-surgical pain in rats. Type of series: in vivo. The note with it: IT chloroprocaine 3% 20 μL, after 4 hours.

≈ marks a conversion by molar mass, not a printed value. Where “and” joins values, the source holds several entries; their conditions need not be identical. Identical values can stand only once.

Take `CC(=O)Nc1ccc(O)cc1` [Acetaminophen, acetyl-p-aminophenol]: the solubility – broadly, the dissolved amount per volume that the medium holds – in series [1] is around 13 mg/mL (≈ 86 mM). Moreover, the “Paw volume (oedema)” value in series [2] (10 μg IT, 2 hours after carrageenan) is 0.43 mL and 0.36 mL (2×) and 0.38 mL and 0.37 mL (2×) and 0.44 mL; in series [2] (10 μg IT, 4 hours after carrageenan) it was 0.39 mL and 0.36 mL and 0.34 mL and 0.38 mL and 0.44 mL (2×) and 0.41 mL; in series [2] (10 μg IT, 6 hours after carrageenan), 0.44 mL and 0.38 mL and 0.33 mL (2×) and 0.37 mL and 0.45 mL and 0.36 mL; in series [2] (10 μg IT, 24 hours after carrageenan) it was 0.47 mL and 0.4 mL and 0.46 mL and 0.37 mL and 0.5 mL and 0.42 mL (2×); in series [2] (10 μg IT, basal), 0.29 mL (2×) and 0.24 mL and 0.2 mL and 0.21 mL and 0.26 mL and 0.22 mL; in series [2] (100 μg IT, 2 hours after carrageenan), 0.32 mL and 0.34 mL and 0.33 mL (3×) and 0.37 mL and 0.36 mL. Moreover, the “Paw volume (oedema)” value in series [2] (100 μg IT, 4 hours after carrageenan) was 0.35 mL (2×) and 0.37 mL and 0.38 mL (2×) and 0.36 mL and 0.34 mL; in series [2] (100 μg IT, 6 hours after carrageenan), 0.38 mL (2×) and 0.4 mL (2×) and 0.39 mL and 0.43 mL and 0.35 mL; in series [2] (100 μg IT, 24 hours after carrageenan) it was 0.33 mL and 0.41 mL and 0.42 mL and 0.44 mL and 0.47 mL and 0.45 mL and 0.46 mL; in series [2] (100 μg IT, basal), 0.27 mL and 0.28 mL and 0.29 mL and 0.24 mL and 0.26 mL and 0.25 mL and 0.18 mL. The “reduction of the development of oedema at the site of inflammation” value in series [2] (100 μg per mouse IT, first two hours following induction) is “approximately 20%”. The “pain threshold following mechanical stimulation” value in series [3] is 22.75 grams and 24.90 grams and 24.00 grams and 28.00 grams and 38.75 grams.

Consider `CCN(CC)CCOC(=O)c1ccc(N)cc1Cl` [Chloroprocaine, chloroprocaine], for which, in series [3], the “effect on pain threshold / post-surgical pain” value was “did not change the pain threshold”; the “pain threshold following mechanical stimulation” value was 23.60 grams and 22.75 grams and 19.75 grams and 24.25 grams. For the same compound, in series [4], the “recovery of walking and tension of the rear limbs” value was “complete recovery in terms of walking and tension of the rear limbs”.

The values are drawn from patent US11344517B2, “Injectable supersaturated acetaminophen solution for spinal administration” (priority 2012, dated 2022).
